Assay results: US10675602B2, “Spray-drying process” (Bend Research, Inc., priority 2009, dated 2020)

Experiment: Room temperature solubility in methanol
Format: physicochemical
Conditions: room temperature (20° C. to 30° C.)

- solubility in methanol: 0.3 wt %
SMILES: CCC(=O)O[C@]1(C(=O)SCF)[C@H](C)C[C@H]2[C@@H]3C[C@H](F)C4=CC(=O)C=C[C@]4(C)[C@@]3(F)[C@@H](O)C[C@@]21C [Active Agent 1, S-(fluoromethyl) 6α,9-difluoro-11β,17-dihydroxy-16α-methyl-3-oxoandrosta-1,4-diene-17β-carbothioate, 17-propionate]
